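Exposure lasted 48 hours, with cells grown in 96-well plates and compounds tested at five concentrations. TGI: concentration producing complete growth inhibition.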
How the values were obtained:
Assay in all cases: growth of human tumour cells (NCI), 48 h
CCRF-CEM leukemia = tested on: CCRF-CEM leukemia
SR leukemia = tested on: SR leukemia
NCI-H522 lung = tested on: NCI-H522 lung
NCI-H460 lung = tested on: NCI-H460 lung
HOP-62 NSCLC = tested on: HOP-62 NSCLC
MOLT-4 leukemia = tested on: MOLT-4 leukemia
MDA-MB-435 = tested on: MDA-MB-435
OVCAR-5 ovarian = tested on: OVCAR-5 ovarian
NCI-H226 lung = tested on: NCI-H226 lung
OVCAR-8 ovarian = tested on: OVCAR-8 ovarian
SN12C renal = tested on: SN12C renal
MDA-N = tested on: MDA-N
UO-31 renal = tested on: UO-31 renal
DU-145 prostate = tested on: DU-145 prostate
EKVX NSCLC = tested on: EKVX NSCLC
HS 578T breast = tested on: HS 578T breast
SF-539 CNS = tested on: SF-539 CNS
T-47D breast = tested on: T-47D breast
SF-268 CNS = tested on: SF-268 CNS
OVCAR-4 ovarian = tested on: OVCAR-4 ovarian

For `CCOC(=O)NC(C(C(=O)OCC)C(=O)OCC)(C(F)(F)F)C(F)(F)F`, the TGI (CCRF-CEM leukemia) was greater than 100 µM, the TGI (SR leukemia) was greater than 100 µM and the TGI (NCI-H522 lung) was greater than 100 µM. The TGI (NCI-H460 lung) was greater than 100 µM, the TGI (HOP-62 NSCLC) was greater than 100 µM and the TGI (MOLT-4 leukemia) was greater than 100 µM. The TGI (MDA-MB-435) was greater than 100 µM, the TGI (OVCAR-5 ovarian) was greater than 100 µM and the TGI (NCI-H226 lung) was greater than 100 µM. The TGI (OVCAR-8 ovarian) was greater than 100 µM, the TGI (SN12C renal) was greater than 100 µM and the TGI (MDA-N) was greater than 100 µM. For the same compound, the TGI (UO-31 renal) was greater than 100 µM, the TGI (DU-145 prostate) was greater than 100 µM and the TGI (EKVX NSCLC) was greater than 100 µM. For the same compound, the TGI (HS 578T breast) was greater than 100 µM, the TGI (SF-539 CNS) was greater than 100 µM and the TGI (T-47D breast) was greater than 100 µM. The TGI (SF-268 CNS) was greater than 100 µM and the TGI (OVCAR-4 ovarian) was greater than 100 µM.

`CCN(CC)c1nc(=O)c(C(=O)C(C)(C)C)c(C(C)(C)C)o1` was tested, and the TGI (CCRF-CEM leukemia) was greater than 100 µM, the TGI (SR leukemia) was greater than 100 µM and the TGI (NCI-H522 lung) was greater than 100 µM. The TGI (NCI-H460 lung) was greater than 100 µM, the TGI (HOP-62 NSCLC) was greater than 100 µM and the TGI (MOLT-4 leukemia) was greater than 100 µM. It also gave a TGI (MDA-MB-435) greater than 100 µM, a TGI (OVCAR-5 ovarian) greater than 100 µM and a TGI (NCI-H226 lung) greater than 100 µM. The TGI (OVCAR-8 ovarian) was greater than 100 µM, the TGI (SN12C renal) was greater than 100 µM and the TGI (MDA-N) was greater than 100 µM. It also gave a TGI (DU-145 prostate) greater than 100 µM, a TGI (EKVX NSCLC) greater than 100 µM and a TGI (HS 578T breast) greater than 100 µM. The TGI (SF-539 CNS) was greater than 100 µM, the TGI (T-47D breast) was greater than 100 µM and the TGI (SF-268 CNS) was greater than 100 µM. The TGI (OVCAR-4 ovarian) was greater than 100 µM.

For `COC(=O)c1c2c(cc3c1CC1(C3)Cc3ccc4c(c3C1=O)CCC4)CCC2` (centres undefined), the TGI (CCRF-CEM leukemia) was greater than 81.8 µM, the TGI (SR leukemia) was greater than 21.9 µM and the TGI (NCI-H522 lung) was 6.19 µM. For the same compound, the TGI (NCI-H460 lung) was greater than 100 µM, the TGI (HOP-62 NSCLC) was greater than 30 µM and the TGI (MOLT-4 leukemia) was greater than 100 µM. For the same compound, the TGI (MDA-MB-435) was 3.22 µM, the TGI (OVCAR-5 ovarian) was greater than 100 µM and the TGI (NCI-H226 lung) was greater than 30 µM. The TGI (OVCAR-8 ovarian) was greater than 82 µM, the TGI (SN12C renal) was greater than 100 µM and the TGI (MDA-N) was 2.81 µM. The TGI (UO-31 renal) was greater than 44.6 µM, the TGI (DU-145 prostate) was greater than 100 µM and the TGI (EKVX NSCLC) was greater than 100 µM. The TGI (HS 578T breast) was 6.62 µM, the TGI (SF-539 CNS) was 9.36 µM and the TGI (T-47D breast) was greater than 100 µM. For the same compound, the TGI (SF-268 CNS) was greater than 100 µM and the TGI (OVCAR-4 ovarian) was greater than 92 µM.

`CC(=O)O[C@H]1CC[C@@]2(C)C(=CC[C@H]3[C@@H]4C/C(=C\c5ccncc5)[C@H](OC(C)=O)[C@@]4(C)CC[C@@H]32)C1` gave a TGI (CCRF-CEM leukemia) of 11.2 µM, a TGI (SR leukemia) of 9.19 µM and a TGI (NCI-H522 lung) of 18.5 µM. It also gave a TGI (NCI-H460 lung) of 24.4 µM, a TGI (HOP-62 NSCLC) of 17.7 µM and a TGI (MOLT-4 leukemia) of 13.9 µM. For the same compound, the TGI (MDA-MB-435) was 36.5 µM, the TGI (OVCAR-5 ovarian) was 36.6 µM and the TGI (NCI-H226 lung) was 34.6 µM. The TGI (OVCAR-8 ovarian) was 34.5 µM, the TGI (SN12C renal) was 33 µM and the TGI (MDA-N) was 46.8 µM. It also gave a TGI (UO-31 renal) of 20.7 µM, a TGI (DU-145 prostate) of 29.4 µM and a TGI (EKVX NSCLC) of 36.3 µM. For the same compound, the TGI (HS 578T breast) was greater than 100 µM, the TGI (SF-539 CNS) was 15.6 µM and the TGI (T-47D breast) was 38.5 µM. For the same compound, the TGI (SF-268 CNS) was 25.8 µM and the TGI (OVCAR-4 ovarian) was 18.2 µM.

Work on `COc1ccc(/C(Cl)=C(\CNc2ccccn2)c2ccccc2)cc1OC` yielded a TGI (CCRF-CEM leukemia) greater than 100 µM, a TGI (SR leukemia) greater than 100 µM and a TGI (NCI-H522 lung) greater than 100 µM. The TGI (NCI-H460 lung) was greater than 100 µM, the TGI (HOP-62 NSCLC) was greater than 100 µM and the TGI (MOLT-4 leukemia) was greater than 100 µM. The TGI (MDA-MB-435) was greater than 100 µM, the TGI (OVCAR-5 ovarian) was greater than 100 µM and the TGI (NCI-H226 lung) was greater than 100 µM. It also gave a TGI (OVCAR-8 ovarian) greater than 100 µM, a TGI (SN12C renal) greater than 100 µM and a TGI (MDA-N) greater than 100 µM. For the same compound, the TGI (UO-31 renal) was greater than 100 µM, the TGI (DU-145 prostate) was greater than 100 µM and the TGI (EKVX NSCLC) was greater than 100 µM. For the same compound, the TGI (HS 578T breast) was greater than 100 µM, the TGI (SF-539 CNS) was greater than 100 µM and the TGI (T-47D breast) was greater than 100 µM. The TGI (SF-268 CNS) was greater than 100 µM and the TGI (OVCAR-4 ovarian) was greater than 100 µM.

`O=C1CSC(c2ccccc2[N+](=O)[O-])N1c1ccc(-n2c(-c3ccccc3)nc3ccccc3c2=O)cc1` (centres undefined) was tested, and the TGI (CCRF-CEM leukemia) was greater than 100 µM, the TGI (SR leukemia) was greater than 100 µM and the TGI (NCI-H522 lung) was greater than 100 µM. The TGI (NCI-H460 lung) was greater than 100 µM, the TGI (HOP-62 NSCLC) was 54.1 µM and the TGI (MOLT-4 leukemia) was greater than 100 µM. For the same compound, the TGI (MDA-MB-435) was greater than 100 µM, the TGI (OVCAR-5 ovarian) was greater than 100 µM and the TGI (NCI-H226 lung) was 89.2 µM. The TGI (OVCAR-8 ovarian) was greater than 100 µM, the TGI (SN12C renal) was greater than 100 µM and the TGI (MDA-N) was greater than 100 µM. It also gave a TGI (UO-31 renal) greater than 100 µM, a TGI (DU-145 prostate) greater than 100 µM and a TGI (EKVX NSCLC) greater than 100 µM. For the same compound, the TGI (HS 578T breast) was 54.8 µM, the TGI (SF-539 CNS) was greater than 100 µM and the TGI (T-47D breast) was 98.4 µM. For the same compound, the TGI (SF-268 CNS) was greater than 100 µM and the TGI (OVCAR-4 ovarian) was greater than 100 µM.

— PubChem BioAssay (NCI)
